# Results published in publication PMC11510591, “In Vitro Evaluation of Pharmacokinetic Properties of Selected Dual COX-2 and 5-LOX Inhibitors” (Pharmaceuticals, 2024).
# Like-named read-outs stand apart in the source and are kept apart here.
# Assays:
# [1] = PAMPA test (hexadecane membrane), passive gastrointestinal absorption; type: in vitro ADME; conditions: donor pH 5.5, acceptor pH 7.4, 5 h, room temperature; for Papp at 5 h, 0.05 mM: PAMPA, read-out: Pe (effective passive permeability coefficient)
# Protocol: The PAMPA test uses a 96-well plate coated with an impregnated filter material, forming an artificial membrane that separates donor and acceptor compartments. Egg lecithin in dodecane is commonly used to simulate membrane lipids, while hexadecane is effective for mimicking gastrointestinal membranes. […] Therefore, hexadecane dissolved in hexane was chosen in this study.
# The phosphate buffer solution was prepared by dissolving 0.5292 g of NaH2PO4 × H2O and 0.0234 g of Na2HPO4 in purified water (200 mL). The phosphate buffer was divided into two portions, and the pH was adjusted to pH 5.5 and pH 7.4 using o-phosphoric acid. The donor solutions were prepared by diluting the stock solutions (5 mM DMSO solutions) with the buffer pH 5.5 to obtain the final concentration of 0.05 mM (the DMSO concentration in the donor solutions was 1%), while the acceptor solution was prepared as a 1% DMSO solution in the buffer pH 7.4. The use of DMSO as a cosolvent in PAMPA is necessary in cases of low-soluble compounds. It is usually used in concentrations up to 5% [25, 55, 56, 57].
# The PAMPA test was performed according to the literature procedure using a 96-well microtiter polycarbonate filter plate (Merck Millipore, Carrigtwohill, Ireland) that was impregnated with 15 µL of a hexadecane/hexane (5:95, v/v) solution [52]. Donor solutions (300 µL per well) were transferred into each well of the donor plate. Acceptor solution was transferred into each well (300 µL per well) of the acceptor plate (MSSACCEPTOR, Millipore, Burlington, MA, USA) and covered by the donor plate to create a PAMPA sandwich. The system was incubated at room temperature for 5 h at a vibratory mixer. After incubation, the PAMPA sandwich was dissociated, and concentrations of all tested compounds in each well, as well as in the starting solutions, were determined using the HPLC method (Section 3.3.1).
# The concentrations of tested compounds in the starting solutions, as well as in the donor and acceptor sections after incubation, were determined by the HPLC method on the Dionex Ultimate 3000 (Thermo Fisher Scientific, Waltham, MA, USA) equipped with a quaternary pump, autosampler, and DAD detector using a ZORBAX Eclipse XDB-C18 4.6 × 150 mm, 5 µm column (Agilent Technologies, Santa Clara, CA, USA).
# R represents the retention, which is defined as the fraction of the tested compound retained in the PAMPA membrane (filters and plate materials), CD(t) is the concentration of a tested compound in a donor compartment after incubation time t, CA(t) is the concentration of a tested compound in an acceptor compartment after incubation time t, while CD(0) represents the concentration of a tested compound in a donor compartment at the beginning of the incubation (starting solution).
# [2] = tested on: CD-1 mouse liver microsomes; conditions: pH 7.4; for Peak Area, t0: 0 min; for Peak Area, t: 30 min
# Protocol: Microsomal stability (and thus susceptibility to metabolism) was tested using microsomes derived from CD-1 mouse liver. According to the applied protocol, both phases of metabolism were activated by the addition of cofactors NADPH and UDP-GlcUA. […] Stock solutions of all tested compounds (5 mM DMSO solutions) were diluted with 0.1 M potassium phosphate buffer pH 7.4 to obtain 0.1 mM solutions, which were further incubated according to the protocol. In order to activate both the 1st and 2nd phases of metabolism, NADPH and UDP-GlcUA were used as cofactors. Tested compounds were incubated at 37 °C for 30 min, and the incubation was quenched immediately after the addition of cofactors (t0) and after the defined incubation time (t) by mixing 100 µL of corresponding incubation mixtures with 200 µL of cold acetonitrile. All compounds were tested in duplicates, and their concentrations were determined using the HPLC-MS/MS method (Section 3.7.1).
# The HPLC-MS/MS analysis was performed on the UHPLC chromatograph ACELLA (Thermo Fisher Scientific Inc., Madison, WI, USA), coupled to a triple quadrupole mass spectrometer TSQ Quantum Access MAX (Thermo Fisher Scientific Inc., Madison, WI, USA) with a heated electrospray ionization (HESI) interface. The column used was Zorbax Extend C18 (150 mm × 4.6 mm, 5 µm; Agilent Technologies), which was thermostated at 25 °C. The mobile phase consisted of acetonitrile and 0.1% formic acid (60:40, v/v), with a flow rate of 500 µL/min. The injection volume was 10 µL.
# [3] = BMC, Brij 35 mobile phase pH 5.5, 36.5 °C, C18 column
# Protocol: BMC was performed using polyoxyethylene lauryl ether (Brij 35) as the most frequently used surfactant in this method. All other parameters (pH, temperature, and salinity) were set to achieve physiological conditions. The retention of compounds is mostly influenced by their lipophilicity and their interactions with both the modified stationary phase and the micelles in the mobile phase. Therefore, the elution behavior is determined by the combined effects of micelles, the stationary phase, and water. An important factor for this method is finding the optimal balance between organic solvent and aqueous phase.
# BMC was performed on an Agilent 1200 Series (Agilent Technologies, Santa Clara, CA, USA) supplied with a binary pump, manual injector (20 µL), and DAD detector (190–950 nm) using a C18 column (ZORBAX Extend-C18 Analytical 4.6 × 150 mm; 5 µm, Agilent Technologies, Santa Clara, CA, USA). Mobile phase was a combination of aqueous phase (40 mmol/L solution of Brij 35 in 7 mmol/L Na2HPO4) and acetonitrile (70:30, v/v), and the mobile phase pH was adjusted to 5.5 using o-phosphoric acid. […] Retention factors (k) were calculated according to Equation (1). Column dead time (t0) was the retention time of DMSO at 220 nm, while tR was the retention time of a tested compound. k = (tR − t0)/t0(1)
# [4] = biological target: T1, human serum albumin (HSA) (Homo sapiens, UniProt P02768); type: binding; conditions: CHIRALPAK HSA column, ammonium acetate buffer pH 7.0/acetonitrile 85:15, 25 °C
# T1 construct: purchased Sigma-Aldrich
# Protocol: Recently, interactions of many newly synthesized structurally diverse compounds with HSA were successfully studied using this technique. The degree of binding of the tested compounds to HSA was evaluated based on their retention behavior on the stationary phase modified with HSA. The logarithmic values of retention factors (logk) were used to evaluate indirectly and compare the drug–HSA interaction.
# HPAC analysis was performed on an Agilent 1200 Series chromatograph (Agilent Technologies, Santa Clara, CA, USA). […] The mobile phase consisted of ammonium acetate buffer (pH 7.0; 0.01 M) and acetonitrile (85:15, v/v). The flow rate was 0.6 mL/min, the temperature was set to 25 °C, and the detection of tested compounds was carried out at 283 nm. Tested compounds were dissolved in DMSO (at a concentration of 1 mg/mL), further diluted with the mobile phase to a final concentration of 0.05 mg/mL, and analyzed in triplicate. The HPAC conditions were selected not only with the aim of achieving satisfactory retention characteristics of all synthesized compounds but also taking into account recommendations of a column manufacturer. Retention factors were calculated using Equation (1), where t0 (column dead time) was the retention time of DMSO at 220 nm.
# [5] = biological target: T1, human serum albumin (HSA); test: Differential pulse voltammetry (DPV), interaction with HSA; type: binding; conditions: compound 0.05 mmol/L, PBS pH 7.4, HSA 0.05–10 μmol/L
# Protocol: The electrochemical oxidation of the tested compounds at a concentration of 0.05 mmol/L in PBS buffer pH 7.4 was investigated by differential pulse voltammetry (DPV). […] For all tested compounds, a preliminary study of the interaction with HSA was performed at a concentration of 0.05 mmol/L and different HSA concentrations (0.05–10 μmol/L) using DPV. […] It has been reported that the shift in the potential of an electroactive ligand is a suitable criterion to determine the mode of the macromolecule–ligand interaction. In this context, a positive shift in potential is an indication of hydrophobic interaction of investigated compounds with HSA [34]. The decrease in peak current could be due to the formation of a non-electroactive supramolecular compound by the drug–protein interaction, which reduces the concentration of free drug.
# The voltammetric measurements were carried out with the µAutolab analyzer (EcoChemie, Utrecht, The Netherlands). A three-electrode system with a GCE working electrode, an Ag/AgCl reference electrode, and a Pt-auxiliary electrode was used. Before each experiment, the GCE was manually polished with an aqueous slurry of Al2O3 powder (particle size of 0.05 μm) on a smooth polishing pad, sonicated in deionized water, and then treated in absolute ethanol. Phosphate buffer saline (PBS) pH 7.4 was used as the supporting electrolyte. The experiments were carried out with deaerated PBS buffer. A stock solution of HSA in PBS at a concentration of 0.1 mmol/L was used. […] The interaction between tested compounds and HSA was examined in PBS solution, using solutions of tested compounds in a concentration of 0.05 mmol/L and HSA solution with a concentration in the range of 0.05–10 μmol/L.
# The percentage of free compound (Equation (4)) was calculated from the ratio of the current intensity (IINT) for a given compound concentration (0.05 mmol/L) in the presence of albumin to the signal obtained at the same compound concentration only in the presence of the supporting electrolyte (PBS buffer) (IC).
# T1 sequence (P02768 25-609): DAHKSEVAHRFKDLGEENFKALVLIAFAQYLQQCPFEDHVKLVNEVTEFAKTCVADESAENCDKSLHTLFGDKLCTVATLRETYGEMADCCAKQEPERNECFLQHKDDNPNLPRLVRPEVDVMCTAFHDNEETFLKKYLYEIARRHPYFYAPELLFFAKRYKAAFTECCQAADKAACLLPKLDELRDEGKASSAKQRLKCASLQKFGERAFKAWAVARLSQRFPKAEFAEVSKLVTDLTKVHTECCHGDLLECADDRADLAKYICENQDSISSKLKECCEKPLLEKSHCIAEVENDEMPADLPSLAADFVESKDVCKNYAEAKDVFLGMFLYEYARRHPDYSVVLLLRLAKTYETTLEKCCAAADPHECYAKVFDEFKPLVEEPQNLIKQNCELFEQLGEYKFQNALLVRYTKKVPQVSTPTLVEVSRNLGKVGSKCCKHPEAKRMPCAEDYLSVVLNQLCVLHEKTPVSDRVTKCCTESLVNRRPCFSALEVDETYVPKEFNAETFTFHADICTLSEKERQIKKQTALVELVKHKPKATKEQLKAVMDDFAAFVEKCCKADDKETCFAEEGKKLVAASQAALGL
SMILES,"Papp at 5 h, 0.05 mM [1]",–logPe [1],–logPe ([1]; listed as diclofenac),"Peak Area, t0 [2]","Peak Area, t [2]",Retention factors (k) [3],Retention factors (k) ([3]; listed as diclofenac),Retention Factors (logk) [4],Retention Factors (logk) ([4]; listed as flurbiprofen),–logPe ([1]; listed as flurbiprofen),% Bound Drug [5],"ΔE, DPV peak potential shift after interaction with HSA [5]",–logPe ([1]; listed as indomethacin),–logPe ([1]; listed as ibuprofen)
"O=C(O)Cc1ccccc1Nc1c(Cl)cccc1Cl [Diclofenac, diclofenac]",> 400 ×10⁻⁶ cm/s,<3.40,≤ 3.46,126.2 ± 2.8 ×10^3,99.7 ± 5.3 ×10^3,8.25 ± 0.00,8.25,,,,,,,
"CC(C(=O)O)c1ccc(-c2ccccc2)c(F)c1 (stereo not shown) [Flurbiprofen, flurbiprofen]",> 400 ×10⁻⁶ cm/s,<3.40,,,,7.14 ± 0.02,,11.03 ± 0.02,11.03,≤ 3.46,Electrochemically inactive,Electrochemically inactive,,
"COc1ccc2c(c1)c(CC(=O)O)c(C)n2C(=O)c1ccc(Cl)cc1 [Indomethacin, indomethacin, reference compound]",386 ×10⁻⁶ cm/s,3.41 ± 0.05,,241.9 ± 2.5 ×10^3,206.9 ± 9.0 ×10^3,10.20 ± 0.03,,,,,,,≤ 3.46,
"CC(C)Cc1ccc(C(C)C(=O)O)cc1 (stereo not shown) [Ibuprofen, ibuprofen]",> 400 ×10⁻⁶ cm/s,<3.40,,,,13.36 ± 0.00,,,,,,,,≤ 3.46
